Read-outs that look alike come from different tables or passages of the source. Values belong to the compound of their own block, whether it stands above or below them.
How the values were obtained:
[1] = molecular target: T1, porcine kidney dehydropeptidase I (Sus scrofa, UniProt P22412); test: Inhibitory activity on porcine kidney dehydropeptidase I (DHP-I); type: biochemical
T1 construct: Frozen porcine kidney cortex was homogenized; from tissue; host or cells: porcine kidney cortex
T1 sequence (P22412 17-409): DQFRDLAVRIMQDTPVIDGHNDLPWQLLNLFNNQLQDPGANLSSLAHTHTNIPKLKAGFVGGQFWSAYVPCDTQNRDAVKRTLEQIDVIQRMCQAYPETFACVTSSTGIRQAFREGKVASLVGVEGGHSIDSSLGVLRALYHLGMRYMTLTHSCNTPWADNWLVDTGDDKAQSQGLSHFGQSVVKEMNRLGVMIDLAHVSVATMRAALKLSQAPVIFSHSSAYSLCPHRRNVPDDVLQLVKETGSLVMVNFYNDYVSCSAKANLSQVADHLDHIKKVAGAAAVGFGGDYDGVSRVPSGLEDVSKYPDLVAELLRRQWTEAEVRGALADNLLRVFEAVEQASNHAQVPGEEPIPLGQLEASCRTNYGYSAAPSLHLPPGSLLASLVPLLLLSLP
Protocol: (1) Inhibitory activity on porcine kidney dehydropeptidase I
(i) Purification of porcine dehydropeptidase I
Frozen porcine kidney cortex was homogenized. Butanol (1/4 volume) pre-cooled in a dry ice-acetone bath was added to the homogenate, and the mixture was stirred at 4° C. for 43 hours. The mixture was then dialyzed for one day and centrifuged at 3,000 g for 30 minutes. To the resulting supernatant was added ammonium sulfate. A precipitate at the salt concentration range between 50 and 75% was collected to give a crude enzyme preparation which was re-dissolved in a 50 mM MOPS buffer containing 0.5 M NaCl. The solution was charged on a cilastatin affinity column. Elution with a 50 mM MOPS buffer containing 0.5 M NaCN gave a purified enzyme preparation.
(ii) Measurement of inhibitory activity
The resulting enzyme preparation (3 mU) and an inhibitor were pre-incubatedat 37° C. for 3 hours in 2.7 ml of a 50 mM MOPS buffer (pH 7.4), and then 2.475 ml of the mixture was transferred into a cuvette. As a substrate, 25 microliters of a 5 mM glycyldehydrophenylalanine solution in a 50 mM MOPS buffer (pH 7.4) was added to start an enzymic reaction. The reaction was carried out at 37° C. in a spectrophotometer fitted with a constant-emperature device, and a decrease of the absorbance at 275 nm during a period of 5 minutes was measured. […] An IC50 value was calculated from the percent inhibition data.
One unit (U) is defined as the amount of the enzyme which hydrolyzes 1 micromole of the substrate (glycyldehydrophenylalanine) per minute at a substrate concentration of 0.05 mM at 37° C. in a 50 mM MOPS buffer (pH 7.4).

[2] = Pharmacokinetic evaluation: plasma concentration in rats; type: in vivo, Male SD rats; conditions: for AUC / concentration at 0.5 h / concentration at 0.25 h / concentration at 5 min / concentration at 1 h / concentration at 2 h / concentration at 4 h / concentration at 6 h / concentration at 8 h: plasma, rat; for AUC: trapezoidal rule; for concentration at 0.5 h: 1/2 h; for concentration at 0.25 h: 1/4 h; for concentration at 5 min: 1/12 h
Protocol: (4) Pharmacokinetic evaluations
Male SD rats ([…]) were divided into groups each consisting of three animals. […] Furthermore, cilastatin was intravenously administered to a 14th group as a control group.
Plasma samples were taken periodically from the carotid artery through a cannula inserted into it at the points of 1/12, 1/4, 1/2, 1, 2, 4, 6, 8 and 24 hours after the administration.
The area under the curve (AUC) of the plasma concentration was determined according to the trapezoidal rule.

[3] = substrate glycyldehydrophenylalanine, pH 7.4, 37° C., 3 h pre-incubation, read-out: Concentration producing 50% inhibition (IC50)
[4] = iv 10 mg/kg (cilastatin dose not given)
[5] = ester po, 10 mg/kg equivalent to compound No. 2, calculated as free acid (No. 2)

IC50 [1, 3]: 31 nM
SMILES: COC(=O)CSCCCCC/C=C(\CP(=O)(O)CC(C)C)C(=O)O [compound 21, (Z)-2-(hydroxyisobutylphosphinoyl)methyl-8-methoxycarbonylmethylthio-2-octenoic acid]

IC50 [1, 3]: 22 nM
SMILES: CC(C)CP(=O)(O)C/C(=C\CCCCCSCC(=O)O)C(=O)O [compound 20, (Z)-8-carboxymethylthio-2-(hydroxyisobutylphosphinoyl)methyl-2-octenoic acid]

IC50 [1, 3]: 64 nM
SMILES: CC(C)CP(=O)(O)C/C(=C\CCCSCCO)C(=O)O [compound 31, (Z)-6-(2-hydroxyethyl)thio-2-(hydroxyisobutylphosphinoyl)methyl-2-hexenoic acid]

IC50 [1, 3]: 19 nM
SMILES: CC(C)CP(=O)(O)C/C(=C\CCCCCSc1ncccc1O)C(=O)O [compound 25, (Z)-8-(3-hydroxy-2-pyridyl)thio-2-(hydroxyisobutylphosphinoyl)methyl-2-octenoic acid]

IC50 [1, 3]: 51 nM
SMILES: CC(C)CP(=O)(O)C/C(=C\CCCCl)C(=O)O [compound 12, (Z)-6-chloro-2-(hydroxyisobutylphosphinoyl)methyl-2-hexenoic acid]

IC50 [1, 3]: 44 nM
SMILES: CC(C)CP(=O)(O)C/C(=C\CCCCCCl)C(=O)O [compound 13, (Z)-8-chloro-2-(hydroxyisobutylphosphinoyl)methyl-2-octenoic acid]

IC50 [1, 3]: 27 nM
SMILES: CCCCCCCCC/C=C(\CP(=O)(O)CC(C)C)C(=O)O [compound 7, (Z)-2-(hydroxyisobutylphosphinoyl)methyl-2-dodecenoic acid]

IC50 [1, 3]: 46 nM
SMILES: CCCCC/C=C(\CP(=O)(O)CC(C)C)C(=O)O [compound 6, (Z)-2-(hydroxyisobutylphosphinoyl)methyl-2-octenoic acid]

The next lines start with the compound.

SMILES: CC(C)CP(=O)(O)C/C(=C\C1CC1)C(=O)O [Compound No. 10, (Z)-3-cyclopropyl-2-(hydroxyisobutylphosphinoyl)methylpropenoic acid]
IC50 [1, 3]: 14 nM
AUC [2, 4]: 40600 ng·h/mL
AUC ([2]; po 10 mg/kg): 3900 ng·h/mL
concentration at 0.5 h [2, 4]: 21700 ng/mL
concentration at 0.25 h [2, 4]: 26500 ng/mL
concentration at 5 min [2, 4]: 40800 ng/mL
concentration at 1 h ([2]; iv 10 mg/kg (cilastatin dose not given), N.D.: below the detection limit): 12800 ng/mL
concentration at 2 h ([2]; iv 10 mg/kg): 5200 ng/mL
concentration at 4 h ([2]; iv 10 mg/kg): 1100 ng/mL
concentration at 6 h ([2]; iv 10 mg/kg, N.D.: below the detection limit): 200 ng/mL
concentration at 8 h ([2]; iv 10 mg/kg): 200 ng/mL
concentration at 0.5 h ([2]; po 10 mg/kg): 1400 ng/mL
concentration at 0.25 h ([2]; po 10 mg/kg): 1100 ng/mL
concentration at 5 min ([2]; po 10 mg/kg): 500 ng/mL
concentration at 1 h ([2]; po 10 mg/kg): 1200 ng/mL
concentration at 2 h ([2]; po 10 mg/kg): 800 ng/mL
concentration at 4 h ([2]; po 10 mg/kg): 300 ng/mL
concentration at 6 h ([2]; po 10 mg/kg): 200 ng/mL

SMILES: CCCCP(=O)(O)C/C(=C\C1CCCCC1)C(=O)O [Compound No. 1, (Z)-2-(butylhydroxyphosphinoyl)methyl-3-cyclohexylpropenoic acid]
IC50 [1, 3]: 38 nM

SMILES: CC(C)CP(=O)(O)C/C(=C\CCc1ccccc1)C(=O)O [compound 11, (Z)-2-(hydroxyisobutylphosphinoyl)methyl-5-phenyl-2-pentenoic acid]
IC50 [1, 3]: 57 nM

SMILES: CC(C)CP(=O)(O)C/C(=C\CCCSc1ccccc1)C(=O)O [compound 18, (Z)-2-(hydroxyisobutylphosphinoyl)methyl-6-phenylthio-2-hexenoic acid]
IC50 [1, 3]: 21 nM

SMILES: CCCCCCCCCCP(=O)(O)C/C(=C\C1CCCCC1)C(=O)O [compound 4, (Z)-3-cyclohexyl-2-(decylhydroxyphosphinoyl)methylpropenoic acid]
IC50 [1, 3]: 68 nM

SMILES: CC(C)CP(=O)(O)C/C(=C\CCCSc1ncccc1O)C(=O)O [compound 22, (Z)-6-(3-hydroxy-2-pyridyl)thio-2-(hydroxyisobutylphosphinoyl)methyl-2-hexenoic acid]
IC50 [1, 3]: 23 nM

SMILES: CC(C)P(=O)(O)C/C(=C\C1CCCCC1)C(=O)O [compound 3, (Z)-3-cyclohexyl-2-(hydroxyisopropylphosphinoyl)methylpropenoic acid]
IC50 [1, 3]: 42 nM

SMILES: CC(C)/C=C(\CP(=O)(O)CC(C)C)C(=O)O [compound 8, (Z)-2-(hydroxyisobutylphosphinoyl)methyl-4-methyl-2-pentenoic acid]
IC50 [1, 3]: 16 nM

SMILES: O=C(O)/C(=C/C1CC1)CP(=O)(O)CC1CCCCC1 [compound 16, (Z)-2-(cyclohexylmethylhydroxyphosphinoyl)methyl-3-cyclopropylpropenoic acid]
IC50 [1, 3]: 41 nM

SMILES: Cc1oc(=O)oc1COC(=O)/C(=C/C1CCCCC1)CP(=O)(O)CC(C)C [Compound No. 27, (5-methyl-2-oxo-1,3-dioxol-4-yl)methyl (Z)-3-cyclohexyl-2-(hydroxyisobutylphosphinoyl)methylpropenoate]
IC50 [1, 3]: 150000 nM
AUC [2, 5]: 56900 ng·h/mL
concentration at 0.5 h [2, 5]: 13300 ng/mL
concentration at 0.25 h [2, 5]: 10100 ng/mL
concentration at 5 min [2, 5]: 1500 ng/mL
concentration at 1 h [2, 5]: 11500 ng/mL
concentration at 2 h [2, 5]: 9300 ng/mL
concentration at 4 h [2, 5]: 4600 ng/mL
concentration at 6 h [2, 5]: 2600 ng/mL
concentration at 8 h [2, 5]: 1400 ng/mL
Oral absorbability ([2]; rats, in words): better oral absorbability than the compound No. 2

SMILES: CC(C)CP(=O)(O)C/C(=C\CCCSc1nccn1C)C(=O)O [compound 24, (Z)-2-(hydroxyisobutylphosphinoyl)methyl-6-(1-methylimidazol-2-yl)thio-2-hexenoic acid]
IC50 [1, 3]: 48 nM

SMILES: CC(C)C/C=C(\CP(=O)(O)CC(C)C)C(=O)O [compound 9, (Z)-2-(hydroxyisobutylphosphinoyl)methyl-5-methyl-2-hexenoic acid]
IC50 [1, 3]: 15 nM

SMILES: CC(C)CP(=O)(O)C/C(=C\CCCSc1c[nH]nn1)C(=O)O [compound 19, (Z)-2-(hydroxyisobutylphosphinoyl)methyl-6-(1,2,3-triazol-4-yl)thio-2-hexenoic acid]
IC50 [1, 3]: 25 nM

SMILES: CC1(C)CC1P(=O)(O)C/C(=C\C1CC1)C(=O)O (stereo not shown) [compound 15, (Z)-3-cyclopropyl-2-(2,2-dimethylcyclopropylhydroxyphosphinoyl)methylpropenoic acid]
IC50 [1, 3]: 6.3 nM

SMILES: CCCCP(=O)(O)CC(CC1CCCCC1)C(=O)O (stereo not shown) [compound 26, 2-(butylhydroxyphosphinoyl)methyl-3-cyclohexylpropionic acid]
IC50 [1, 3]: 28 nM

SMILES: CC(C)CP(=O)(O)C/C(=C\c1ccccc1)C(=O)O [compound 29, (Z)-2-(hydroxyisobutylphosphinoyl)methyl-3-phenylpropenoic acid]
IC50 [1, 3]: 60 nM

SMILES: C/C=C(\CP(=O)(O)CC(C)C)C(=O)O [compound 30, (Z)-2-(hydroxyisobutylphosphinoyl)methyl-2-butenoic acid]
IC50 [1]: 75 nM
